Test results taken from patent US7183299B2 (priority 2001, dated 2007).

Assays:
late blight on tomato = assay type: in vivo, Plasmopara viticola; conditions: tomato (Hofuku), therapeutic effect, sprayed after inoculation, active ingredient 100 ppm, disease severity 7 days after inoculation
[1] = system: downy mildew (Plasmopara viticola) on grape; conditions: in vivo

| SMILES | Control value (%) (late blight on tomato) | Control value (%) [1] |
| --- | --- | --- |
| CCCC(=O)Nc1cccc(CON=C(c2ccccc2)c2nnnn2C)n1 [(1)-6] | 90% | 70% |
| CC(C)C(=O)Nc1cccc(CON=C(c2ccccc2)c2nnnn2C)n1 [(1)-7] | 100% | 100% |
| CCCCC(=O)Nc1cccc(CON=C(c2ccccc2)c2nnnn2C)n1 [(1)-8] | 90% | 70% |
| CCCCCC(=O)Nc1cccc(CON=C(c2ccccc2)c2nnnn2C)n1 [(1)-12, (Z)-(1-methyltetrazol-5-yl)phenylmethanoneoxime 0-(6-(hexanoylamino)pyridin-2-yl)methyloxime] | 100% | 100% |
| Cn1nnnc1C(=NOCc1cccc(NC(=O)CC(C)(C)C)n1)c1ccccc1 [(1)-16] | 100% | 70% |
| CCCCCCC(=O)Nc1cccc(CON=C(c2ccccc2)c2nnnn2C)n1 [(1)-18] | 100% | 100% |
| Cn1nnnc1C(=NOCc1cccc(NC(=O)C2CC2)n1)c1ccccc1 [(1)-21] | 90% | 70% |
| CC(C)C(=O)Nc1nc(CON=C(c2ccccc2)c2nnnn2C)cs1 [(2)-7] | 100% | 90% |
| Cn1nnnc1C(=NOCc1csc(NC(=O)C(C)(C)C)n1)c1ccccc1 [(2)-11] | 100% | 100% |
| CCCCCC(=O)Nc1nc(CON=C(c2ccccc2)c2nnnn2C)cs1 [(2)-12] | 100% | 90% |
| Cn1nnnc1C(=NOCc1csc(NC(=O)CC(C)(C)C)n1)c1ccccc1 [(2)-16] | 100% | 90% |
| CCOC(=O)Nc1cccc(CON=C(c2ccccc2)c2nnnn2C)n1 [(3)-2] | 90% | 70% |
| CCCOC(=O)Nc1cccc(CON=C(c2ccccc2)c2nnnn2C)n1 [(3)-3] | 100% | 90% |
| CC(C)OC(=O)Nc1cccc(CON=C(c2ccccc2)c2nnnn2C)n1 [(3)-4] | 100% | 90% |
| CCCCOC(=O)Nc1cccc(CON=C(c2ccccc2)c2nnnn2C)n1 [(3)-5] | 100% | 100% |
| Cn1nnnc1C(=NOCc1cccc(NC(=O)OC(C)(C)C)n1)c1ccccc1 [(3)-8] | 100% | 100% |
| CCCCCOC(=O)Nc1cccc(CON=C(c2ccccc2)c2nnnn2C)n1 [(3)-9] | 100% | 100% |
| CCCCCCOC(=O)Nc1cccc(CON=C(c2ccccc2)c2nnnn2C)n1 [(3)-15] | 100% | 100% |
| CCCCCCCOC(=O)Nc1cccc(CON=C(c2ccccc2)c2nnnn2C)n1 [(3)-16] | 100% | 100% |
| Cn1nnnc1C(=NOCc1cccc(NC(=O)OCc2ccccc2)n1)c1ccccc1 [(3)-18] | 100% | 100% |
| CCC(C)(C)OC(=O)Nc1cccc(CON=C(c2ccccc2)c2nnnn2C)n1 [(3)-21] | 100% | 70% |
| Cn1nnnc1C(=NOCc1cccc(NC(=O)OC2CCCC2)n1)c1ccccc1 [(3)-22] | 100% | 100% |
| Cn1nnnc1C(=NOCc1cccc(NC(=O)OC2CCCCC2)n1)c1ccccc1 [(3)-23] | 100% | 80% |
| CCCCCCOC(=O)Nc1nc(CON=C(c2ccccc2)c2nnnn2C)cs1 [(4)-15] | 80% | 70% |
| Cn1nnnc1C(=NOCc1csc(NC(=O)OCc2ccccc2)n1)c1ccccc1 [(4)-18] | 90% | 70% |

| SMILES | Control value (%) (late blight on tomato) | Control value (%) [1] |
| --- | --- | --- |
| Cn1nnnc1C(=NOCc1cccc(NC(=O)Cc2ccccc2)n1)c1ccccc1 [(5)-12] | 100% | 100% |
| Cn1nnnc1C(=NOCc1cccc(NC(=O)c2ccccc2)n1)c1ccccc1 [(5)-14] | 100% | 90% |
| CCOCC(=O)Nc1nc(CON=C(c2ccccc2)c2nnnn2C)cs1 [(6)-2] | 80% | 70% |
| CSCCC(=O)Nc1nc(CON=C(c2ccccc2)c2nnnn2C)cs1 [(6)-6] | 80% | 70% |
| C=C(C)C(=O)Nc1nc(CON=C(c2ccccc2)c2nnnn2C)cs1 [(6)-7] | 100% | 100% |
| CCCOCCC(=O)Nc1nc(CON=C(c2ccccc2)c2nnnn2C)cs1 [(6)-15] | 90% | 70% |
| CCCC(=O)Nc1cccc(CON=C(c2ccc(Cl)cc2)c2nnnn2C)n1 [(7)-1] | 80% | 70% |
| Cn1nnnc1C(=NOCc1cccc(NC(=O)C2CC2)n1)c1ccc(Cl)cc1 [(7)-3] | 80% | 80% |
| COc1ccc(C(=NOCc2cccc(NC(=O)C3CC3)n2)c2nnnn2C)cc1 [(7)-11] | 80% | 70% |
| CCCCCC(=O)Nc1cccc(CON=C(c2ccc(C)cc2)c2nnnn2C)n1 [(7)-12] | 100% | 100% |
| CC(C)C(=O)Nc1nc(CON=C(c2ccc(Cl)cc2)c2nnnn2C)cs1 [(8)-2] | 90% | 70% |
| Cn1nnnc1C(=NOCc1csc(NC(=O)C(C)(C)C)n1)c1cccc(F)c1 [(8)-7] | 80% | 70% |
| COc1ccc(C(=NOCc2csc(NC(=O)C(C)(C)C)n2)c2nnnn2C)cc1 [(8)-10] | 90% | 70% |
| Cn1nnnc1C(=NOCc1csc(NC(=O)C(C)(C)C)n1)c1ccc(Cl)cc1 [(8)-17] | 80% | 90% |
| Cn1nnnc1C(=NOCc1cccc(NC(=O)OC(C)(C)C)n1)c1cccc(F)c1 [(9)-1] | 100% | 100% |
| CC(C)OC(=O)Nc1cccc(CON=C(c2ccc(F)cc2)c2nnnn2C)n1 [(9)-2] | 80% | 70% |
| Cn1nnnc1C(=NOCc1cccc(NC(=O)OC(C)(C)C)n1)c1ccc(F)cc1 [(9)-3] | 90% | 70% |
| Cc1ccc(C(=NOCc2cccc(NC(=O)OC(C)(C)C)n2)c2nnnn2C)cc1 [(9)-4] | 100% | 100% |
| CCCCCOC(=O)Nc1cccc(CON=C(c2ccc(C)cc2)c2nnnn2C)n1 [(9)-5] | 100% | 100% |
| CCCOC(=O)Nc1cccc(CON=C(c2cccc(F)c2)c2nnnn2C)n1 [(9)-6] | 100% | 70% |
| CCCCCC(=O)Nc1cccc(CON=C(c2cccc(C)c2)c2nnnn2C)n1 [(9)-7] | 100% | 100% |
| CCC(C)(C)OC(=O)Nc1cccc(CON=C(c2ccc(C)cc2)c2nnnn2C)n1 [(9)-9] | 100% | 100% |
| CCCCCOC(=O)Nc1cccc(CON=C(c2ccccc2C)c2nnnn2C)n1 [(9)-10] | 100% | 100% |
| CCCCOC(=O)Nc1cccc(CON=C(c2ccccc2C)c2nnnn2C)n1 [(9)-11] | 100% | 100% |
